Broadly, the IC50 is the concentration that inhibits the measured activity by half.

Data on four compounds can be found in ChEMBL document CHEMBL4007467, “Effects of 6-paradol, an unsaturated ketone from gingers, on cytochrome P450-mediated drug metabolism” (Bioorg Med Chem Lett, 2017).

Common to all, as to format: ADME
In experiment [1] the target is T1, Cytochrome P450 3A4 (Homo sapiens, UniProt P08684). Description: Inhibition of recombinant human CYP3A4 expressed in baculosomes using Vivid BOMR substrate red measured every 30 sec for 30 mins by fluorescence assay.
Experiment [2] has as its target T2, Cytochrome P450 2D6 (Homo sapiens, UniProt P10635). Description: Inhibition of recombinant human CYP2D6 expressed in baculosomes using Vivid EOMCC substrate blue measured every 30 sec for 30 mins by fluorescence assay.
In experiment [3] the target is T1, Cytochrome P450 3A4. In words: Inhibition of recombinant human CYP3A4 expressed in baculosomes using Vivid DBOMF substrate green measured every 30 sec for 30 mins by fluorescence assay.
For the next experiment, the target named is T3, Cytochrome P450 2C8 (Homo sapiens, UniProt P10632).
T3 sequence (P10632 whole entry): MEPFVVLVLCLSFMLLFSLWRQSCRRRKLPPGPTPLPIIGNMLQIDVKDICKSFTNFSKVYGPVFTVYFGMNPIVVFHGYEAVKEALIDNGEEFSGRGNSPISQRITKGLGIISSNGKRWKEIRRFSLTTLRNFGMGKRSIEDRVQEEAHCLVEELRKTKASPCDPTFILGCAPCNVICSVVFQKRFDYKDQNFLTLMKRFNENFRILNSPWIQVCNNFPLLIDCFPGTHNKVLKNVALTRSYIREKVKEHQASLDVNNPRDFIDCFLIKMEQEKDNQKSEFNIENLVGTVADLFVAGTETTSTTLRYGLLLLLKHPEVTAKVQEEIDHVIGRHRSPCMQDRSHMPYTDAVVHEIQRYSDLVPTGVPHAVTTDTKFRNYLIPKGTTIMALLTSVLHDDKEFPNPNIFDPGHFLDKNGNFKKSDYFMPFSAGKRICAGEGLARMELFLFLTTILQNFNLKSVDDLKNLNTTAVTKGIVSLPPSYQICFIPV
Description: Inhibition of CYP2C8 in human liver microsomes using amodiaquin as substrate preincubated for 10 mins followed by NADPH addition measured after 10 mins.

Experiment [4] concerns the target T4, Cytochrome P450 2C9 (Homo sapiens, UniProt P11712). In words: Inhibition of recombinant human CYP2C9 expressed in baculosomes using Vivid OOMR substrate red measured every 30 sec for 30 mins by fluorescence assay.
For experiment [5], the target named is T5, Cytochrome P450 2C19 (Homo sapiens, UniProt P33261). Description: Inhibition of CYP2C19 in human liver microsomes using (S)-mephenytoin as substrate preincubated for 10 mins followed by NADPH addition measured after 40 mins. A general note: Microsomes from liver hold many membrane-bound enzymes, among them those of drug oxidation.
The target in experiment [6] is T1, Cytochrome P450 3A4. Description: Inhibition of recombinant human CYP3A4 expressed in baculosomes using Vivid BOMCC substrate blue measured every 30 sec for 30 mins by fluorescence assay.
Experiment [7] deals with T4, Cytochrome P450 2C9. Description: Inhibition of CYP2C9 in human liver microsomes using diclofenac as substrate preincubated for 10 mins followed by NADPH addition measured after 7 mins.
Experiment [8] has as its target T6, Cytochrome P450 1A2 (Homo sapiens, UniProt P05177).
T6 sequence (P05177 whole entry): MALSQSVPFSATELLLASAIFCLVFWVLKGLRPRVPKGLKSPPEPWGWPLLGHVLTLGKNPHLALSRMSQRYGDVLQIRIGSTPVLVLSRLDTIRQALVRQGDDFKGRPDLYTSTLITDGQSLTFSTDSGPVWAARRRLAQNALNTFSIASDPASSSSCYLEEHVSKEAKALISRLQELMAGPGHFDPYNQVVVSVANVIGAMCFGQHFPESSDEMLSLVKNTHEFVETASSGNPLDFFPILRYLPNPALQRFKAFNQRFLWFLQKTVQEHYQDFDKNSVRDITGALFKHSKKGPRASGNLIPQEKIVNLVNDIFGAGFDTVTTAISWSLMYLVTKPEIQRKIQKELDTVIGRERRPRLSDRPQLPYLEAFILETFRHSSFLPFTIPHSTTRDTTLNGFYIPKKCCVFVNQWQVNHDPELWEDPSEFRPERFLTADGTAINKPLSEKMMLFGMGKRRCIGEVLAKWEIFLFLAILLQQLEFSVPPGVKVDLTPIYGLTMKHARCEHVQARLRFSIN
Description: Inhibition of CYP1A2 in human liver microsomes using phenacetin as substrate preincubated for 10 mins followed by NADPH addition measured after 10 mins.

The next experiment addresses T7, Cytochrome P450 2A6 (Homo sapiens, UniProt P11509).
T7 sequence (P11509 whole entry): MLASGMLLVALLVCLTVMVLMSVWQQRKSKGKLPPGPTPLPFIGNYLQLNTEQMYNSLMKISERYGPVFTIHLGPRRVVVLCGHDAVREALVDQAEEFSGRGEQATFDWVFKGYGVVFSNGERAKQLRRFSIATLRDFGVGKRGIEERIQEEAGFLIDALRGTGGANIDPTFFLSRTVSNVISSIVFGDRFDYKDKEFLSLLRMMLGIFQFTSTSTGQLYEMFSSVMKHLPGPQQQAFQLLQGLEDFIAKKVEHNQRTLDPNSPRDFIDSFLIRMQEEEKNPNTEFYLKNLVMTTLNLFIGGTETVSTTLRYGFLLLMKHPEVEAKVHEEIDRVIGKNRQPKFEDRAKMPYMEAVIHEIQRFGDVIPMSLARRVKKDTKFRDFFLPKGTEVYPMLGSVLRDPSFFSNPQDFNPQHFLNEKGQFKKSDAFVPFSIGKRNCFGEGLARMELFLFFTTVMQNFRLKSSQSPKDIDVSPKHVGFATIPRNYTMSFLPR
Description: Inhibition of CYP2A6 in human liver microsomes using Coumarin as substrate preincubated for 10 mins followed by NADPH addition measured after 15 mins.

The target of experiment [9] is T5, Cytochrome P450 2C19. In words: Inhibition of recombinant human CYP2C19 expressed in baculosomes using Vivid EOMCC substrate blue measured every 30 sec for 30 mins by fluorescence assay.
In the next experiment the target is T8, Cytochrome P450 2B6 (Homo sapiens, UniProt P20813).
T8 sequence (P20813 whole entry): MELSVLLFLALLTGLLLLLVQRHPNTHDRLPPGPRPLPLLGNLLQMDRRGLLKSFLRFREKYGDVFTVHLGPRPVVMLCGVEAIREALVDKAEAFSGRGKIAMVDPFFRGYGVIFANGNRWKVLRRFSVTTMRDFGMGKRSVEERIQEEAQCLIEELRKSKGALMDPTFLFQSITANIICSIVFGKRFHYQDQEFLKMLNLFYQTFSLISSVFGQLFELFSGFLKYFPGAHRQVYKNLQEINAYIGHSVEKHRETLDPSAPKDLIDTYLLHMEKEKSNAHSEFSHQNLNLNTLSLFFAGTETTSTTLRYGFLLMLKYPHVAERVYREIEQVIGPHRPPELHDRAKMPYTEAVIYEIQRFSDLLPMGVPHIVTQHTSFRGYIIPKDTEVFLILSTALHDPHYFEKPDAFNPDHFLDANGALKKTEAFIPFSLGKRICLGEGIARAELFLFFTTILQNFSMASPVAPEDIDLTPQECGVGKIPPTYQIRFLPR
Description: Inhibition of CYP2B6 in human liver microsomes using bupropion as substrate preincubated for 10 mins followed by NADPH addition measured after 20 mins.

The target of experiment [10] is T2, Cytochrome P450 2D6. In words: Inhibition of CYP2D6 in human liver microsomes using dextromethorphan as substrate preincubated for 10 mins followed by NADPH addition measured after 15 mins.
For experiment [11], the target named is T1, Cytochrome P450 3A4. Description: Inhibition of CYP3A4 in human liver microsomes using testosterone as substrate preincubated for 10 mins followed by NADPH addition measured after 10 mins.
Experiment [12] deals with T9, Cytochrome P450 2E1 (Homo sapiens, UniProt P05181). Description: Inhibition of CYP2E1 in human liver microsomes using chlorzoxazone as substrate preincubated for 10 mins followed by NADPH addition measured after 20 mins.
Experiment [13] deals with T1, Cytochrome P450 3A4. Description: Inhibition of CYP3A4 in human liver microsomes using midazolam as substrate.
In experiment [14] the target is T5, Cytochrome P450 2C19. Description: Inhibition of CYP2C19 in human liver microsomes using (S)-mephenytoin as substrate by HPLC analysis.
In experiment [15] the target is T1, Cytochrome P450 3A4. In words: Inhibition of CYP3A4 in human liver microsomes using midazolam as substrate preincubated for 10 mins followed by NADPH addition measured after 5 mins.
Experiment [16] has as its target T4, Cytochrome P450 2C9. Description: Inhibition of CYP2C9 in human liver microsomes using tolbutamide as substrate by HPLC analysis.
Experiment [17] deals with T9, Cytochrome P450 2E1. In words: Inhibition of CYP2E1 in human liver microsomes using chlorzoxazone as substrate by HPLC analysis.
Experiment [18] concerns the target T6, Cytochrome P450 1A2. Description: Inhibition of CYP1A2 in human liver microsomes using phenacetin as substrate by HPLC analysis.

T2 sequence (P10635 whole entry): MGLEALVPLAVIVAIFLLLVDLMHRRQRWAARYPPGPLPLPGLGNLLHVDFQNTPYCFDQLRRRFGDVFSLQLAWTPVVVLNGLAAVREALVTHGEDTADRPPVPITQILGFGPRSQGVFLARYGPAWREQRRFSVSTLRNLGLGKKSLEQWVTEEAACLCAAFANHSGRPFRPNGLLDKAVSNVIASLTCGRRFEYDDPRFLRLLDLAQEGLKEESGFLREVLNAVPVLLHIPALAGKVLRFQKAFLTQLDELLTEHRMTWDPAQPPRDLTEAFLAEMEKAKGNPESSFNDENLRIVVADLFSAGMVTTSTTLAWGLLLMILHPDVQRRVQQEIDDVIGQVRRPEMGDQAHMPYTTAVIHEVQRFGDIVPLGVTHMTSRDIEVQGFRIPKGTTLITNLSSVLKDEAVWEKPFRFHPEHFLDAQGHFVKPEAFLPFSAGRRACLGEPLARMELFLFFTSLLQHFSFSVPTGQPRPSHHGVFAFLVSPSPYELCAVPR
T9 sequence (P05181 whole entry): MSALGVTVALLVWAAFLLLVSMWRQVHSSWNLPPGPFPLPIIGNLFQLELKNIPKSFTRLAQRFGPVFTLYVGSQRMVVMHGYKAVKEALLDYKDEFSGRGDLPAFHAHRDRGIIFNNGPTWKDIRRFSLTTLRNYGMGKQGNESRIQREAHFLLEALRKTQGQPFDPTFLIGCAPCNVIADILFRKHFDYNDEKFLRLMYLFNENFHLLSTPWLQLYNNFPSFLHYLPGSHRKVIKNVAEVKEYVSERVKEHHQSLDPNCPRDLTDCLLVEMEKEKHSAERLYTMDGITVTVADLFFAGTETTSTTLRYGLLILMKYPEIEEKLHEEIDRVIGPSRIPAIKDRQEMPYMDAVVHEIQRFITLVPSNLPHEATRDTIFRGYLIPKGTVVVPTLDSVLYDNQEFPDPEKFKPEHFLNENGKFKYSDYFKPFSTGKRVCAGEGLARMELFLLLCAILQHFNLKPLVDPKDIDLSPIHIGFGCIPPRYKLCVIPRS
T1 sequence (P08684 whole entry): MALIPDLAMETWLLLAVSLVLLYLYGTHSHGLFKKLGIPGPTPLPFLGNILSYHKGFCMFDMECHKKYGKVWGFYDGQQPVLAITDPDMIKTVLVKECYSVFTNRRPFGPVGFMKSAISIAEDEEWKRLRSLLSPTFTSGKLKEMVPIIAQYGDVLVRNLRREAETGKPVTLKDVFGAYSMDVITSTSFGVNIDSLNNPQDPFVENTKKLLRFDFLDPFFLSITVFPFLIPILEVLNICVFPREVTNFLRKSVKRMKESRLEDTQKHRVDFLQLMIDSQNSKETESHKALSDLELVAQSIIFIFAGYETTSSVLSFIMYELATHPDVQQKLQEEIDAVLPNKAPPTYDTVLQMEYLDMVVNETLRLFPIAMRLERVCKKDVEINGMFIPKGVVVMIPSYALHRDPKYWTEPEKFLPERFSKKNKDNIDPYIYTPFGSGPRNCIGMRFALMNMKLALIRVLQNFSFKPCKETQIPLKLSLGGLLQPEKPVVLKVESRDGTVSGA
T5 sequence (P33261 whole entry): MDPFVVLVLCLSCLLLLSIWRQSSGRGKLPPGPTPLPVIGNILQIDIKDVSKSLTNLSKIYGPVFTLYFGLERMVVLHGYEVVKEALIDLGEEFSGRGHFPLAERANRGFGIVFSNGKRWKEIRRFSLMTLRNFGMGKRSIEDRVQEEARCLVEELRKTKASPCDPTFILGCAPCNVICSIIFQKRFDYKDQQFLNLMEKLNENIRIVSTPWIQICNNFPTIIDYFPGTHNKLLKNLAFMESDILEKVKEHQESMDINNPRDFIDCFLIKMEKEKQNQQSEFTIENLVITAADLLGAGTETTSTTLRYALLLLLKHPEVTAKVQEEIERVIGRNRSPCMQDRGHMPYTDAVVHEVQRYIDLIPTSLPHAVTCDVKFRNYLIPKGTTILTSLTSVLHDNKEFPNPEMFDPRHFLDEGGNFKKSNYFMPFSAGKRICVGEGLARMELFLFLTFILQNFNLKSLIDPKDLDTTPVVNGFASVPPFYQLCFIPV
T4 sequence (P11712 whole entry): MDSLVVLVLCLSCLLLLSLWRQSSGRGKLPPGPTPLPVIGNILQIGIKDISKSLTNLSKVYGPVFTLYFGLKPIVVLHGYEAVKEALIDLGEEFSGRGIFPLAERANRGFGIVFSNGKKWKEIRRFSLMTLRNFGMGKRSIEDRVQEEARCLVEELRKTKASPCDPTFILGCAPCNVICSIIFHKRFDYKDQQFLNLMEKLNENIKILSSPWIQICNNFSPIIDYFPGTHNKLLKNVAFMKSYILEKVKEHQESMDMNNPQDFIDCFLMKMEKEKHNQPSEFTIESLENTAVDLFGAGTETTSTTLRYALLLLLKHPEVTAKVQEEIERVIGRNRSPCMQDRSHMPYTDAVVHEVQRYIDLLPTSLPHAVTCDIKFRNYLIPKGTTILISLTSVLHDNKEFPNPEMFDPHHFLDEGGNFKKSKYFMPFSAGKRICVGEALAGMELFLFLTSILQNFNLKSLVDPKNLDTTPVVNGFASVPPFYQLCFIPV

Turning to `CCCCCCC[C@H](O)CC(=O)CCc1ccc(O)c(OC)c1`, the IC50 was 10.5 µM on Cytochrome P450 3A4 [1]; 42.7 µM at Cytochrome P450 2D6 [2]; 11.6 µM at Cytochrome P450 3A4 [3]; 2.2 µM against Cytochrome P450 2C8; 6.8 µM at Cytochrome P450 2C9 [4]; 8.1 µM against Cytochrome P450 2C19 [5]. The IC50 on Cytochrome P450 3A4 [6] stood at 8.7 µM; against Cytochrome P450 2C9 [7] it was 8.7 µM; on Cytochrome P450 1A2 [8] it was 27.3 µM; against Cytochrome P450 2A6 it was 59 µM; on Cytochrome P450 2C19 [9] it was 12.5 µM; on Cytochrome P450 2B6 it was 8.1 µM. For the same compound, the IC50 against Cytochrome P450 2D6 [10] was determined as 74.5 µM; on Cytochrome P450 3A4 [11], 8.1 µM; against Cytochrome P450 2E1 [12] it was 93.2 µM.

`CCCCCCCCC[C@H](O)CC(=O)CCc1ccc(O)c(OC)c1`: the IC50 is 24.9 µM at Cytochrome P450 3A4 [1]; 21.8 µM on Cytochrome P450 3A4 [3]; 2 µM on Cytochrome P450 2C8; 16.3 µM on Cytochrome P450 2C9 [4]; 6.6 µM on Cytochrome P450 2C19 [5]; 20.8 µM on Cytochrome P450 3A4 [6]. Besides, the IC50 was determined as 7.5 µM against Cytochrome P450 2C9 [7]; 98.3 µM on Cytochrome P450 2A6; 13.6 µM on Cytochrome P450 2C19 [9]; 4.3 µM against Cytochrome P450 2B6; 54.9 µM against Cytochrome P450 2D6 [10]; 7.1 µM at Cytochrome P450 3A4 [11].

Consider `CCCCC[C@H](O)CC(=O)CCc1ccc(O)c(OC)c1` [GINGEROL], for which the IC50 at Cytochrome P450 3A4 [1] was 42.9 µM; on Cytochrome P450 3A4 [3], 32 µM; at Cytochrome P450 2C9 [4], 12.1 µM; at Cytochrome P450 3A4 [6], 21.8 µM; at Cytochrome P450 3A4 [13] it was 73.4 µM; on Cytochrome P450 2C19 [9] it was 30.7 µM. The same compound returned an IC50 on Cytochrome P450 2B6 of 40.8 µM.

With `CCCCC/C=C/C(=O)CCc1ccc(O)c(OC)c1` [SHOGAOL], the IC50 against Cytochrome P450 2C19 [14] worked out at 18.8 µM; on Cytochrome P450 3A4 [15], 65.2 µM; at Cytochrome P450 3A4 [1], 4 µM; against Cytochrome P450 2C9 [16] it was 29.2 µM; against Cytochrome P450 2C8, 2.9 µM; on Cytochrome P450 2C9 [7], 3.3 µM. In addition, the IC50 is 2.5 µM at Cytochrome P450 1A2 [8]; 83.3 µM against Cytochrome P450 2A6; 5.8 µM against Cytochrome P450 2B6; 99.6 µM against Cytochrome P450 2E1 [17]; 87 µM against Cytochrome P450 2D6 [10]; 8.3 µM at Cytochrome P450 3A4 [11]. Further, the IC50 was found to be 20.7 µM on Cytochrome P450 1A2 [18] and 76.1 µM against Cytochrome P450 2E1 [12].
